Test results taken from patent US6506893B1, “Polynucleotides and their use for detecting resistance to streptogramin A or to streptogramin B and related compounds” (priority 1997, dated 2003).

How the values were obtained:
[1] = test system: S. aureus recipient RN4220 transformants with pIP1717; test: MIC by serial twofold dilutions in MHA, S. aureus RN4220 transformants carrying pIP1717 (vgaB); format: cell-based; details: Staphylococcus aureus; S. aureus RN4220 transformants with pIP1717 (2.4 kb HindIII-HaeIII fragment carrying vgaB), selected on 10 μg/ml erythromycin; read-out: PIIA MICs
Excerpt: First, the 2.4 kb HindIII-HaeIII fragment of pIP 1675, which contains only 10 nucleotide from vatB, was inserted into plasmid pOX300, and the recombinant plasmid, pIP1717 (FIG. 1B), was introduced by electroporation into the S. aureus recipient, RN4220 (Kreiswirth et al., 1983). Plasmid pOX300, also named pOX7, (Dyke and Curnock, 1989), is a hybrid of pUC18 and pE194ts and replicates in E. coli where it confers resistance to ampicillin and to erythromycin, and in S. aureus where only resistance to erythromycin is expressed. The S. aureus transformants selected on 10 μg/ml erythromycin were resistant to streptogramin A and related compounds (PIIA MICs=8-16 μg/ml). Thus, the 2.4-kb HindIII-HaeIII insert of pIP1717 (FIG. 1B) probably carried a streptogramin A resistance gene and was sequenced. The nucleotide (nucleotide) sequence of this fragment was determined by the dideoxy method (Sanger et al., 1977) with the reagents and the procedure recommended by the suppliers of the T^7 sequencing kit (Pharmacia International). Arrows indicate the direction and extent of each dideoxy-sequencing reaction. (FIG. 1B).
(§1) Minimal inhibitory concentrations (MICs) of antibiotics were determined by serial twofold dilutions of antibiotics in MHA (Ericson H. M. and S. C. Sherris, ActaPathol. Microbiol. Scand., 1971, Suppl. 217:Section B).

[2] = test system: Staphylococci resistant to synergistic mixtures of A and B compounds; details: Allignet et al., 1996; cited from earlier work
[3] = test system: S. aureus recipient strain RN4220 transformant harboring pIP1714; test: Susceptibility to antimicrobial agents, S. aureus RN4220 transformant harboring pIP1714 (vatC, vgbB); format: cell-based, Staphylococcus aureus; details: RN4220 transformant with pIP1714, selected on BHIA with 10 μg/ml pristinamycin IIA
Procedure: The strain BM10711 harbored several plasmids including pIP1714 (5kb). This plasmid was […] by electroporation in a S. aureus recipient strain, RN4220. The transformant, harboring pIP1714, was selected on BHIA containing 10 μg/ml pristinamycin IIA.
Susceptibility to antimicrobial agents was determined with a disk diffusion assay and commercially available disks (Diagnostic Pasteur). Additional disks prepared in our laboratory contained streptogramin A (20 μg) or streptogramin B (40 μg).
as §1

| Compound | MIC [1] | MIC [2] | resistance conferred by plasmid [3] |
| --- | --- | --- | --- |
| CC1=C\[C@@H](O)CC(=O)Cc2nc(co2)C(=O)N2CCC=C2C(=O)O[C@H](C(C)C)[C@H](C)/C=C/C(=O)NC\C=C\1 [PIIA, pristinamycin IIA] | 8 to 16 µg/mL | ≥ 8 µg/mL | – |
| streptogramin A | – | – | resistances |
| streptogramin B | – | – | resistances |
